Among the test systems are BT-549 breast; HOP-62 NSCLC; HS 578T breast; HT29 colon; MDA-MB-231 breast; NCI-H23 lung; NCI-H460 lung; OVCAR-4 ovarian; SW-620 colon; UACC-257 melanoma.
Assay in all cases: growth of human tumour cells (NCI), 48 h

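Each compound was tested at five concentrations against cells in 96-well plates for 48 hours. TGI is the concentration that stops growth completely.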

`NS(=O)(=O)c1cc2c(cc1Cl)NC(CCC(=O)O)=NS2(=O)=O`: the TGI in the test on BT-549 breast, in the test with HOP-62 NSCLC, with HS 578T breast, in the test on HT29 colon, with MDA-MB-231 breast and in the test with NCI-H23 lung was greater than 100 µM throughout. Besides, the TGI in the test on NCI-H460 lung, in the test with OVCAR-4 ovarian, with SW-620 colon and in the test on UACC-257 melanoma was greater than 100 µM throughout.

Turning to `CC1OC(OC2C(OC(=O)[C@]34CCC(C)(C)C[C@H]3C3=CC[C@@H]5[C@@]6(C)CC[C@H](OC7OC(C(=O)O)C(O)C(O)C7O)C(C)(C)[C@@H]6CC[C@@]5(C)[C@]3(C)C[C@H]4O)OCC(O)C2O)C(O)C(OC2OCC(O)(CO)C2O)C1OC1OCC(O)C(O)C1O` (stereo partly specified), the TGI came out at 17.3 µM in the test with BT-549 breast; 32.4 µM in the test on HOP-62 NSCLC; 40 µM with HS 578T breast; 12.1 µM in the test on HT29 colon; 12.7 µM with MDA-MB-231 breast; 7.18 µM in the test on NCI-H23 lung. In addition, the TGI was found to be 36.5 µM in the test on NCI-H460 lung, 22.7 µM in the test on OVCAR-4 ovarian, 23.2 µM in the test on SW-620 colon and 26.6 µM in the test with UACC-257 melanoma.

`CCOC(=O)Cn1c(=O)c2nc(SC)sc2n(-c2ccccc2)c1=O`: the TGI in the test with BT-549 breast, in the test with HOP-62 NSCLC, in the test on HS 578T breast, with HT29 colon, in the test with MDA-MB-231 breast and in the test on NCI-H23 lung was greater than 100 µM in each case. For the same compound, the TGI with NCI-H460 lung, in the test with SW-620 colon and with UACC-257 melanoma was greater than 100 µM in each case.

For the compound `CCOC(=O)c1nc2c(nc1C(=O)OCC)C(=O)c1ccccc1C2=O`, the TGI in the test with BT-549 breast was found to be 2.76 µM; in the test with HOP-62 NSCLC, 3.78 µM; in the test with HS 578T breast, 0.766 µM; in the test with HT29 colon it was 9.06 µM; with MDA-MB-231 breast, 8.41 µM; in the test on NCI-H460 lung, 3.73 µM. Moreover, the results for the TGI with OVCAR-4 ovarian, with SW-620 colon and in the test with UACC-257 melanoma were 1.95 µM, 3.77 µM and 1.28 µM, respectively.

`Cc1ccc2c(c1)C(=O)C1(Cc3ccccc3C1=O)C2` (stereo unspecified): the TGI with HOP-62 NSCLC, in the test with HS 578T breast, in the test with HT29 colon, with MDA-MB-231 breast, in the test on NCI-H23 lung and with NCI-H460 lung was greater than 100 µM throughout. In addition, the TGI in the test on OVCAR-4 ovarian, in the test with SW-620 colon and in the test with UACC-257 melanoma was greater than 100 µM throughout.

Turning to `CC(=O)Nc1nc(C#N)[nH]c1C#N`, the TGI in the test with BT-549 breast, in the test on HOP-62 NSCLC, in the test on HS 578T breast, in the test with HT29 colon, in the test on MDA-MB-231 breast and in the test on NCI-H23 lung was greater than 100 µM each time. For the same compound, the TGI with NCI-H460 lung, in the test with OVCAR-4 ovarian, with SW-620 colon and with UACC-257 melanoma was greater than 100 µM each time.

As to `Cc1c(S(=O)(=O)c2ccccc2)c(N)n(CCN(C)C)c1C`, the TGI in the test on BT-549 breast, in the test with HS 578T breast, with HT29 colon, with MDA-MB-231 breast, with NCI-H23 lung and in the test with NCI-H460 lung was greater than 100 µM throughout. Besides, the TGI in the test on OVCAR-4 ovarian, in the test with SW-620 colon and with UACC-257 melanoma was greater than 100 µM each time.

As for `COc1ccc2c(C)cc(=O)oc2c1OC`, the TGI in the test on HOP-62 NSCLC, in the test with HS 578T breast, with HT29 colon, in the test with MDA-MB-231 breast, in the test on NCI-H23 lung and in the test with OVCAR-4 ovarian was greater than 100 µM each time. For the same compound, the TGI with SW-620 colon and with UACC-257 melanoma was greater than 100 µM throughout.

Regarding `CC1CCC(C(=O)O)(C(Br)C(=O)O)CC1` (stereo unspecified), the TGI in the test with BT-549 breast, with HOP-62 NSCLC, in the test on HT29 colon, with MDA-MB-231 breast, in the test with NCI-H23 lung and in the test on NCI-H460 lung was greater than 100 µM each time. The TGI with OVCAR-4 ovarian, in the test on SW-620 colon and in the test on UACC-257 melanoma was greater than 100 µM in each case.

As to `Cc1cc(N(CCOS(C)(=O)=O)CCOS(C)(=O)=O)ccc1C=O`, the TGI in the test with BT-549 breast is greater than 100 µM; with HS 578T breast, 94 µM; in the test on HT29 colon it was greater than 100 µM; with MDA-MB-231 breast it was 94.6 µM; in the test on NCI-H23 lung, 36.9 µM; in the test on NCI-H460 lung, 6.35 µM. Besides, the results for the TGI in the test with OVCAR-4 ovarian, in the test on SW-620 colon and in the test with UACC-257 melanoma were 45.3 µM, greater than 100 µM and 48 µM, respectively.

`CCOP(=O)(OCC)C(c1ccc(F)cc1)N(C(=O)NC(F)(F)F)c1ccc(OC)cc1` (stereo unspecified): the TGI in the test with HOP-62 NSCLC, with HS 578T breast, in the test on HT29 colon, in the test with MDA-MB-231 breast, with NCI-H23 lung and in the test on NCI-H460 lung was greater than 100 µM in each case. Besides, the TGI in the test on SW-620 colon and in the test with UACC-257 melanoma was greater than 100 µM in each case.

Take `CSC(=S)N/N=C(\C)c1ccc(S(=O)(=O)N(C)c2ccccc2)cc1`: the TGI was greater than 100 µM in the test with HOP-62 NSCLC; 87 µM in the test with HS 578T breast; greater than 100 µM in the test with HT29 colon; greater than 100 µM in the test with MDA-MB-231 breast; greater than 100 µM with NCI-H23 lung; greater than 100 µM in the test on NCI-H460 lung. Moreover, the TGI in the test on OVCAR-4 ovarian, in the test with SW-620 colon and with UACC-257 melanoma was greater than 100 µM in each case.

With `CCOC(=O)c1c(C)nc2c3ccccc3c(C#N)c(C)n12`, the TGI in the test on BT-549 breast was greater than 100 µM; in the test with HOP-62 NSCLC it was 70.7 µM; in the test with HS 578T breast it was greater than 100 µM; with MDA-MB-231 breast, 46.5 µM; in the test with NCI-H460 lung it was greater than 100 µM; in the test with OVCAR-4 ovarian, greater than 100 µM. Further, the TGI in the test on SW-620 colon and in the test with UACC-257 melanoma was greater than 100 µM in each case.

On to `Cc1cc2c3c(nc4ccccc42)C(=O)c2ccccc2-c3n1`, for which the TGI amounted to 48.4 µM with BT-549 breast; 23.5 µM with HOP-62 NSCLC; 46.7 µM in the test with HS 578T breast; 60.2 µM in the test with HT29 colon; 78.1 µM in the test with MDA-MB-231 breast; 15.9 µM with NCI-H23 lung. The figures for the TGI in the test with OVCAR-4 ovarian, with SW-620 colon and in the test on UACC-257 melanoma were greater than 100 µM, 35.9 µM and greater than 100 µM, respectively.
